Experimental data from US7968604B2, “Pharmaceutical composition for prevention and treatment of drug or alcohol addiction or bipolar disorder using sodium phenylbutyrate” (priority 2005, dated 2011).

How the values were obtained:
Format in all cases: in vivo, Sprague-Dawley rats
[1] = test system: cocaine-induced locomotor activity and rearing; assay: cocaine-induced (acute) locomotor activity and rearing in rats
Method: In order to examine effects of a pharmaceutical composition for prevention and treatment of drug or alcohol addiction or bipolar disorder containing sodium phenylbutyrate (PBA) in accordance with the present invention, the following animal experiments were carried out using Sprague-Dawley rats, weighing 250-275 g (upon arrival), (Samtaco Animal Breeding Company, Osan, Korea).
A bank of 12 activity boxes was used to measure locomotor activity of animals (Kim & Vezina, 1998). Each box (22×43×33 cm) estimated locomotor activity from photo beam interruptions. Rats were placed in the activity boxes for a 1-hour habituation period. Then, these rats were administered with the respective dosages of the pharmaceutical composition and were immediately placed again in the activity boxes, and locomotor activity and rearing activity of rats were measured for additional 2 hours. […] Rearing activity was also measured by counting upward/downward motion of rats via photo beams installed in the activity boxes. […]
Different concentrations (0.1, 1.0, 5.0 and 10.0 mg/kg) of sodium phenylbutyrate were intraperitoneally injected (acute) alone or in combination with cocaine (15 mg/kg) into rats, and locomotor activity and rearing of animals were measured for 2 hours. […]

[2] = test system: amphetamine-induced locomotor activity; assay: amphetamine-induced (acute) locomotor activity in rats
Method: In order to examine effects of a pharmaceutical composition for prevention and treatment of drug or alcohol addiction or bipolar disorder containing sodium phenylbutyrate (PBA) in accordance with the present invention, the following animal experiments were carried out using Sprague-Dawley rats, weighing 250-275 g (upon arrival), (Samtaco Animal Breeding Company, Osan, Korea). A bank of 12 activity boxes was used to measure locomotor activity of animals (Kim & Vezina, 1998). Each box (22×43×33 cm) estimated locomotor activity from photo beam interruptions. Rats were placed in the activity boxes for a 1-hour habituation period. Then, these rats were administered with the respective dosages of the pharmaceutical composition and were immediately placed again in the activity boxes, and locomotor activity and rearing activity of rats were measured for additional 2 hours. […] Rearing activity was also measured by counting upward/downward motion of rats via photo beams installed in the activity boxes. […] Similar to Example 1, different concentrations (0.1, 1.0 and 10.0 mg/kg) of sodium phenylbutyrate were intraperitoneally injected (acute) alone or in combination with amphetamine (1.5 mg/kg) into rats, and locomotor activity of animals was measured for 2 hours. […]

[3] = test system: amphetamine-induced behavioral sensitization; assay: amphetamine-induced behavioral sensitization (chronic) in rats
Method: In order to examine effects of a pharmaceutical composition for prevention and treatment of drug or alcohol addiction or bipolar disorder containing sodium phenylbutyrate (PBA) in accordance with the present invention, the following animal experiments were carried out using Sprague-Dawley rats, weighing 250-275 g (upon arrival), (Samtaco Animal Breeding Company, Osan, Korea). A bank of 12 activity boxes was used to measure locomotor activity of animals (Kim & Vezina, 1998). Each box (22×43×33 cm) estimated locomotor activity from photo beam interruptions. Rats were placed in the activity boxes for a 1-hour habituation period. Then, these rats were administered with the respective dosages of the pharmaceutical composition and were immediately placed again in the activity boxes, and locomotor activity and rearing activity of rats were measured for additional 2 hours. Specifically, a computer was adapted to count locomotion of rats via photo beams installed on the top/bottom and right/left of the activity boxes, and such locomotion behavior of rats was confirmed for two hours. Rearing activity was also measured by counting upward/downward motion of rats via photo beams installed in the activity boxes. […]

[4] = test system: locomotor activity; assay: locomotor activity after sodium phenylbutyrate alone daily for 7 days; conditions: rats, 0.1 and 1.0 mg/kg i.p. once a day for 7 days, measured day 1 and day 7
Method: In order to examine effects of a pharmaceutical composition for prevention and treatment of drug or alcohol addiction or bipolar disorder containing sodium phenylbutyrate (PBA) in accordance with the present invention, the following animal experiments were carried out using Sprague-Dawley rats, weighing 250-275 g (upon arrival), (Samtaco Animal Breeding Company, Osan, Korea). A bank of 12 activity boxes was used to measure locomotor activity of animals (Kim & Vezina, 1998). Each box (22×43×33 cm) estimated locomotor activity from photo beam interruptions. Rats were placed in the activity boxes for a 1-hour habituation period. Then, these rats were administered with the respective dosages of the pharmaceutical composition and were immediately placed again in the activity boxes, and locomotor activity and rearing activity of rats were measured for additional 2 hours. Specifically, a computer was adapted to count locomotion of rats via photo beams installed on the top/bottom and right/left of the activity boxes, and such locomotion behavior of rats was confirmed for two hours. Rearing activity was also measured by counting upward/downward motion of rats via photo beams installed in the activity boxes. […] On day 1 and day 7 of drug administration, locomotor activity of animals was measured. […]

## O=C(O)CCCc1ccccc1 [sodium phenylbutyrate]
[1]; i.p. acute, 0.1, 1.0, 5.0 and 10.0 mg/kg with cocaine 15 mg/kg, measured 2 hours
  effect on increase in cocaine-induced locomotor activity and rearing: reduce an increase in cocaine-induced locomotor activity and rearing of rats in a dose-dependent manner
[1]; i.p. acute, with cocaine 15 mg/kg
  dose at which effects on cocaine-induced locomotor activity and rearing were greatest: 1.0 mg/kg
[2]; i.p. acute, 0.1, 1.0 and 10.0 mg/kg with amphetamine 1.5 mg/kg, measured 2 hours
  effect on increase in amphetamine-induced locomotor activity: decrease an increase in amphetamine-induced locomotor activity
[2]; i.p. acute, with amphetamine 1.5 mg/kg
  dose range at which effects on amphetamine-induced locomotor activity were similarly exhibited: 0.1 to 10.0 mg/kg
[3]; rats, 0.1, 1.0 and 10.0 mg/kg with amphetamine 1.5 mg/kg four times at 2 to 3 day intervals, one-week withdrawal, amphetamine challenge
  effect on amphetamine-induced behavioral sensitization: significant blocking effects against amphetamine-induced behavioral sensitization
[3]; rats, repeated co-administration with amphetamine 1.5 mg/kg
  dose range at which blocking of behavioral sensitization was particularly strong: 0.1 to 1.0 mg/kg
[4]
  changes in locomotor activity on administration of sodium phenylbutyrate alone: does not result in any significant changes in locomotor activity of animals
